According to ChEMBL document CHEMBL5154782, “Discovery of Potent PROTACs Targeting EGFR Mutants through the Optimization of Covalent EGFR Ligands” (J Med Chem, 2022):
Active and inactive are the calls of the source. The calls are words filed in the database; no cut-off is given here.

Legend:
[1] = target: T1, von Hippel-Lindau disease tumor suppressor/Epidermal growth factor receptor (Homo sapiens, UniProt P00533+P40337); assay: Protac activity at VHL/EGFR deletion19 mutant in human HCC827 cells assessed as induction of EGFR degradation; assay type: cell-based
[2] = test system: HCC827; assay: Antiproliferative activity against human HCC827 cells expressing EGFR deletion19 mutant assessed as inhibition of cell proliferation; assay type: functional, cell-based
[3] = target: T1, von Hippel-Lindau disease tumor suppressor/Epidermal growth factor receptor; assay: Protac activity at VHL/EGFR deletion19 mutant in human PC9 cells assessed as induction of EGFR degradation; assay type: cell-based; settings: pc-9
[4] = target: von Hippel-Lindau disease tumor suppressor/Epidermal growth factor receptor (Homo sapiens, UniProt P00533+P40337, T790M/L858R); assay: Protac activity at VHL/EGFR L858R/T790M mutant in human NCI-H1975 cells assessed as induction of EGFR degradation; assay type: cell-based
[5] = test system: NCI-H1975; assay: Antiproliferative activity against human NCI-H1975 cells expressing EGFR L858R/T790M mutant assessed as inhibition of cell proliferation; assay type: functional, cell-based
[6] = test system: von Hippel-Lindau disease tumor suppressor/Epidermal growth factor receptor (Homo sapiens), P00533+P40337 [UNDEFINED MUTATION]; assay: Protac activity at VHL/EGFR/deletion19 in human HCC827 cells assessed as induction of EGFR degradation at 1 to 30 nM incubated for 24 hrs by Western blot analysis; assay type: cell-based; settings: dose 1-30 nM
[7] = test system: NCI-H1975; assay: Antiproliferative activity against human NCI-H1975 cells expressing EGFR L858R/T790M mutant assessed as inhibition of cell proliferation incubated for 72 hrs by MTT assay; assay type: functional, cell-based; settings: NCI-H1975, 72 h
[8] = test system: HCC827; assay: Antiproliferative activity against human HCC827 cells expressing EGFR deletion19 mutant assessed as inhibition of cell proliferation incubated for 72 hrs by MTT assay; assay type: functional, cell-based; settings: HCC827, 72 h
[9] = target: von Hippel-Lindau disease tumor suppressor/Epidermal growth factor receptor (Homo sapiens, UniProt P00533+P40337, L858R/T790M); assay: Protac activity at VHL/EGFR L858R/T790M mutant (unknown origin) assessed as inhibition of EGFR incubated for 40 mins in presence of ATP by Kinase Glo luminescence assay; assay type: protein assay
[10] = test system: A-431; assay: Antiproliferative activity against human A-431 cells expressing EGFR wildtype assessed as inhibition of cell proliferation incubated for 72 hrs by MTT assay; assay type: functional, cell-based; settings: A-431, 72 h
[11] = target: von Hippel-Lindau disease tumor suppressor/Epidermal growth factor receptor (Homo sapiens, UniProt P00533+P40337, L858R); assay: Protac activity at VHL/EGFR L858R mutant (unknown origin) assessed as inhibition of EGFR incubated for 40 mins in presence of ATP by Kinase Glo luminescence assay; assay type: protein assay
[12] = test system: von Hippel-Lindau disease tumor suppressor/Epidermal growth factor receptor (Homo sapiens), P00533+P40337 [UNDEFINED MUTATION]; assay: Protac activity at VHL/EGFR/deletion19 in human HCC827 cells assessed as induction of EGFR degradation at 3 nM incubated for 24 hrs by Western blot analysis relative to control; assay type: cell-based
[13] = test system: von Hippel-Lindau disease tumor suppressor/Epidermal growth factor receptor (Homo sapiens), P00533+P40337 [L858R,T790M]; assay: Protac activity at VHL/EGFR L858R/T790M mutant in human NCI-H1975 cells assessed as induction of EGFR degradation at 10 nM incubated for 24 hrs by Western blot analysis relative to control; assay type: cell-based
[14] = test system: NCI-H1975; assay: Inhibition of colony formation in human NCI-H1975 cells at 1 to 30 nM incubated for 10 days by crystal violet based assay; assay type: functional, cell-based; settings: dose 1-30 nM, time 10.0 day
[15] = test system: HCC827; assay: Inhibition of colony formation in human HCC827 cells at 1 to 30 nM incubated for 10 days by crystal violet based assay; assay type: functional, cell-based; settings: dose 1-30 nM, time 10.0 day
[16] = test system: von Hippel-Lindau disease tumor suppressor/Epidermal growth factor receptor (Homo sapiens), P00533+P40337 [UNDEFINED MUTATION]; assay: Protac activity at VHL/EGFR/deletion19 in human HCC827 cells assessed as induction of EGFR degradation at 30 nM incubated for 24 hrs by Western blot analysis relative to control; assay type: cell-based
[17] = test system: von Hippel-Lindau disease tumor suppressor/Epidermal growth factor receptor (Homo sapiens), P00533+P40337 [L858R,T790M]; assay: Protac activity at VHL/EGFR L858R/T790M mutant in human NCI-H1975 cells assessed as induction of EGFR degradation at 100 nM incubated for 24 hrs by Western blot analysis relative to control; assay type: cell-based
[18] = test system: von Hippel-Lindau disease tumor suppressor/Epidermal growth factor receptor (Homo sapiens), P00533+P40337 [L858R,T790M]; assay: Protac activity at VHL/[…] cells assessed as induction of EGFR degradation at 100 nM incubated for 24 hrs by Western blot analysis relative to control; assay type: cell-based
[19] = test system: von Hippel-Lindau disease tumor suppressor/Epidermal growth factor receptor (Homo sapiens), P00533+P40337 [L858R,T790M]; assay: Protac activity at VHL/[…] cells assessed as induction of EGFR degradation at 1000 nM incubated for 24 hrs by Western blot analysis relative to control; assay type: cell-based
[20] = test system: von Hippel-Lindau disease tumor suppressor/Epidermal growth factor receptor (Homo sapiens), P00533+P40337 [L858R,T790M]; assay: Protac activity at VHL/EGFR L858R/T790M mutant in human NCI-H1975 cells assessed as induction of EGFR degradation at 1000 nM incubated for 24 hrs by Western blot analysis relative to control; assay type: cell-based
[21] = target: T1, von Hippel-Lindau disease tumor suppressor/Epidermal growth factor receptor; assay: Protac activity at VHL/EGFR deletion19 mutant in human HCC827 cells assessed as induction of EGFR degradation under starvation condition; assay type: cell-based
[22] = test system: PC-9; assay: Antiproliferative activity against human PC-9 cells expressing EGFR deletion19/T790M/C797S mutant assessed as reduction on cell growth growth incubated for 72 hrs by MTT assay; assay type: functional, cell-based; settings: PC-9, 72 h
[23] = test system: NCI-H1975; assay: Antiproliferative activity against human NCI-H1975 cells expressing EGFR L858R/T790M/C797S mutant assessed as reduction on cell growth incubated for 72 hrs by MTT assay; assay type: functional, cell-based; settings: NCI-H1975, 72 h
[24] = test system: BaF3; assay: Antiproliferative activity against mouse BaF3 cells expressing EGFR L858R/T790M/C797S mutant assessed as reduction on cell growth incubated for 72 hrs by MTT assay; assay type: toxicity, cell-based; settings: BaF3, 72 h
[25] = test system: BaF3; assay: Antiproliferative activity against mouse BaF3 cells expressing EGFR deletion19/T790M/C797S mutant assessed as reduction on cell growth incubated for 72 hrs by MTT assay; assay type: toxicity, cell-based; settings: BaF3, 72 h
[26] = test system: HCC827; assay: Antiproliferative activity against human […] assessed as inhibition of cell proliferation incubated for 72 hrs by MTT assay; assay type: functional, cell-based; settings: HCC827, 72 h
[27] = test system: Protein cereblon/Epidermal growth factor receptor (Homo sapiens), P00533+Q96SW2 [L858R,T790M,C797S]; assay: Protac activity at CRBN/EGFR L858R/T790M/C797S mutant in mouse BaF3 cells assessed as induction of EGFR degradation at 100 nM; assay type: cell-based
[28] = test system: Protein cereblon/Epidermal growth factor receptor (Homo sapiens), P00533+Q96SW2 [L858R,T790M]; assay: Protac activity at CRBN/EGFR L858R/T790M mutant in mouse BaF3 cells assessed as induction of EGFR degradation at 100 nM; assay type: cell-based

O=C1CCC(N2Cc3c(NC(=O)CCCCCCN4CCN(c5ccc(Nc6cc7c(N8CCC(CO)CC8)nc(Nc8ccc(F)cc8)nc7cn6)nc5)CC4)cccc3C2=O)C(=O)N1 (stereo not drawn)
DC50 [1]: 34.8 nM
IC50 [2]: 220 nM

C=CC(=O)Nc1cc2c(Nc3ccc(F)c(Cl)c3)ncnc2cc1OCCCN1CCN(C(=O)CCCCCCNc2cccc3c2C(=O)N(C2CCC(=O)NC2=O)C3=O)CC1 (stereo not drawn)
DC50 [3]: 100 nM
DC50 [4]: < 30 nM
IC50 [5]: 26.5 nM

CCC(=O)N1CCC[C@H](n2c(Nc3ccccc3)nc3cnc(Nc4ccc(N5CCN(CCCCCCCC(=O)N[C@H](C(=O)N6C[C@H](O)C[C@H]6C(=O)N[C@@H](C)c6ccc(-c7scnc7C)cc6)C(C)(C)C)CC5)cc4)nc32)C1
Activity [6]: Active
IC50 [7]: 2900 nM
IC50 [8]: 5.39 nM

C=CC(=O)Nc1cccc(-n2c(=O)cc(C)c3cnc(Nc4ccc(N5CCN(CCCCCC(=O)N[C@H](C(=O)N6C[C@H](O)C[C@H]6C(=O)NCc6ccc(-c7scnc7C)cc6)C(C)(C)C)CC5)cc4OC)nc32)c1
IC50 [5]: 510 nM

C=CC(=O)N1CC[C@H](n2c(Nc3ccccc3)nc3cnc(Nc4ccc(N5CCN(C)CC5)cc4)nc32)C1
IC50 [9]: 23 nM
IC50 [7]: 15 nM
IC50 [8]: 0.47 nM
IC50 [10]: 2900 nM
IC50 [11]: 10 nM

C=CC(=O)N1CCC[C@H](n2c(Nc3ccccc3)nc3cnc(Nc4ccc(N5CCN(CCCCCCCC(=O)N[C@H](C(=O)N6C[C@H](O)C[C@H]6C(=O)NCc6ccc(-c7scnc7C)cc6)C(C)(C)C)CC5)cc4)nc32)C1
Activity [12]: 69%
Activity [13]: < 20%
inhibition [14]: Active
IC50 [7]: 39 nM
IC50 [8]: 2.55 nM
IC50 [10]: > 10000 nM
inhibition [15]: Active
Activity [16]: 78%
Activity [17]: 74%

COc1cc2ncnc(Nc3ccc(F)c(Cl)c3)c2cc1OCCCCCOCCOCCC(=O)N[C@H](C(=O)N1C[C@H](O)C[C@H]1C(=O)NCc1ccc(-c2scnc2C)cc1)C(C)(C)C
DC50 [1]: 11.7 nM

COc1cc(N(C)CCN(C)C)c(NC(=O)/C(C#N)=C/C(C)(C)NC(=O)CCCCCCC(=O)N[C@H](C(=O)N2C[C@H](O)C[C@H]2C(=O)NCc2ccc(-c3scnc3C)cc2)C(C)(C)C)cc1Nc1nccc(-c2cn(C)c3ccccc23)n1
IC50 [9]: 857 nM
Activity [18]: < 20%
IC50 [7]: 2360 nM
IC50 [8]: 544 nM
Activity [19]: 26%
Activity [17]: < 20%
Activity [20]: < 20%

COc1cc2ncnc(Nc3ccc(F)c(Cl)c3)c2cc1OCCCN1CCN(C(=O)CCCCCCCCCC(=O)N[C@H](C(=O)N2C[C@H](O)C[C@H]2C(=O)NCc2ccc(-c3scnc3C)cc2)C(C)(C)C)CC1
DC50 [21]: 5 nM

Cc1ncsc1-c1ccc(CNC(=O)[C@@H]2C[C@@H](O)CN2C(=O)[C@@H](NC(=O)CCCCCCN2CCN(c3ccc(Nc4ncc5nc(Nc6ccccc6)n(C6CCCC6)c5n4)cc3)CC2)C(C)(C)C)cc1
DC50 [1]: 0.51 nM
IC50 [2]: 0.76 nM

COc1cc(N2CCC(N3CCN(C)CC3)CC2)c(C)cc1Nc1ncc(Br)c(Nc2ccc3nccnc3c2P(C)(C)=O)n1
IC50 [22]: 45 nM
IC50 [23]: 910 nM
IC50 [24]: 21 nM
IC50 [25]: 17 nM

C=CC(=O)N1CC[C@@H](n2c(Nc3ccccc3)nc3cnc(Nc4ccc(N5CCN(CCCCCCC(=O)N[C@H](C(=O)N6C[C@H](O)C[C@H]6C(=O)NCc6ccc(-c7scnc7C)cc6)C(C)(C)C)CC5)cc4)nc32)C1
IC50 [26]: 12.4 nM
IC50 [7]: 550 nM

C=CC(=O)N1CCC[C@@H](n2c(Nc3ccccc3)nc3cnc(Nc4ccc(N5CCN(CCCCCCCC(=O)N[C@H](C(=O)N6C[C@H](O)C[C@H]6C(=O)N[C@@H](C)c6ccc(-c7scnc7C)cc6)C(C)(C)C)CC5)cc4)nc32)C1
IC50 [26]: 6.49 nM
IC50 [7]: 1060 nM

C=CC(=O)N1CCC[C@H](n2c(Nc3ccccc3)nc3cnc(Nc4ccc(N5CCN(C)CC5)cc4)nc32)C1
IC50 [9]: 38 nM
IC50 [7]: 12 nM
IC50 [8]: 0.33 nM
IC50 [10]: 7090 nM
Activity [17]: < 20%
IC50 [11]: 21 nM

O=C1CCC(N2C(=O)c3cccc(NCCOCCOCCOCCN4CCN(c5ccc(-c6ccc7c(c6)C(=O)N(C(C(=O)Nc6nccs6)c6ccccc6)C7)cn5)CC4)c3C2=O)C(=O)N1 (stereo not drawn)
Activity [27]: 74%
Activity [28]: 59%

C=CC(=O)N1CC[C@H](n2c(Nc3ccccc3)nc3cnc(Nc4ccc(N5CCN(CCCCCCC(=O)N[C@H](C(=O)N6C[C@H](O)C[C@H]6C(=O)NCc6ccc(-c7scnc7C)cc6)C(C)(C)C)CC5)cc4)nc32)C1
Activity [12]: 65%
Activity [13]: 38%
IC50 [26]: 1.86 nM
IC50 [7]: 44 nM
IC50 [8]: 1.66 nM
IC50 [10]: > 10000 nM
Activity [16]: 81%
Activity [17]: 79%
